These are literature values, as cited in US20050142185A1, “Softgel formulations of bisphosphonates bone resorption inhibitors” (priority 2003, published 2005).

For series [1] the following is noted: marketed tablet not taken with enough water, or patient not upright for about one-half hour after taking.
The conditions of series [2]: taken either concurrently with or 2 hours after breakfast.

`NCCCC(O)(P(=O)(O)O)P(=O)(O)O` [alendronate, 4-amino-1-hydroxybutylidene-1,1-biphosphonic acid]: in series [1], the side effects reported entry is “esophageal irritation and erosion”. The impairment of availability in series [2] is more than 85%.
